Results from PubChem BioAssay AID256 (DTP/NCI, 2004).
“And” between values parts separate entries of the source, which are not always exact repeats. Identical values can stand only once. Toxic doses and inconclusive results are not listed.

System: CD2F1 mice, L1210 leukemia ip, survival T/C
Assay: NCI In Vivo Anticancer Drug Screen. Data for tumor model L1210 Leukemia (intraperitoneal) in CD2F1 (CDF1) mice
Conditions: higher = longer survival
Method in brief: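 Vehicle-treated tumor-bearing mice served as controls (C) for compound-treated mice (T). Reported figure is T divided by C.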

[1] = endpoint: mean survival time, dose: 100.0 mg/kg/injection, schedule: Q01DX001 (ip), vehicle: saline
[2] = endpoint: mean survival time, dose: 200.0 mg/kg/injection, schedule: Q01DX001 (ip), vehicle: saline
[3] = endpoint: mean survival time, dose: 400.0 mg/kg/injection, schedule: Q01DX001 (ip), vehicle: saline
[4] = endpoint: mean survival time, dose: 100.0 mg/kg/injection, schedule: Q01DX009 (ip), vehicle: saline with Tween-80
[5] = endpoint: mean survival time, dose: 100.0 mg/kg/injection, schedule: Q04DX002 (ip), vehicle: saline with Tween-80
[6] = endpoint: mean survival time, dose: 200.0 mg/kg/injection, schedule: Q01DX009 (ip), vehicle: saline with Tween-80
[7] = endpoint: mean survival time, dose: 200.0 mg/kg/injection, schedule: Q04DX002 (ip), vehicle: saline with Tween-80
[8] = endpoint: mean survival time, dose: 400.0 mg/kg/injection, schedule: Q01DX009 (ip), vehicle: saline with Tween-80
[9] = endpoint: mean survival time, dose: 400.0 mg/kg/injection, schedule: Q04DX002 (ip), vehicle: saline with Tween-80
[10] = endpoint: mean survival time, dose: 100.0 mg/kg/injection, schedule: Q04DX003 (ip), vehicle: saline with Tween-80
[11] = endpoint: mean survival time, dose: 200.0 mg/kg/injection, schedule: Q04DX003 (ip), vehicle: saline with Tween-80
[12] = endpoint: mean survival time, dose: 100.0 mg/kg/injection, schedule: Q01DX001 (ip), vehicle: saline with Tween-80
[13] = endpoint: mean survival time, dose: 400.0 mg/kg/injection, schedule: Q04DX003 (ip), vehicle: saline with Tween-80
[14] = endpoint: mean survival time, dose: 12.5 mg/kg/injection, schedule: Q01DX009 (ip), vehicle: saline with Tween-80
[15] = endpoint: mean survival time, dose: 200.0 mg/kg/injection, schedule: Q01DX001 (ip), vehicle: saline with Tween-80
[16] = endpoint: mean survival time, dose: 400.0 mg/kg/injection, schedule: Q01DX001 (ip), vehicle: saline with Tween-80

## BrC/C(=N\N1CCCCCC1)c1ccc(-c2ccccc2)cc1
[1]
  T/C: 92 % of control
[2]
  T/C: 93 % of control
[3]
  T/C: 94 % of control

## O=C1OC2C(Cl)CC(Cl)CC2C=C1c1cccc([N+](=O)[O-])c1 (stereo not given)
[4]
  T/C: 90 % of control
[5]
  T/C: 90 % of control
[6]
  T/C: 94 % of control
[7]
  T/C: 90 % of control
[8]
  T/C: 105 % of control
[9]
  T/C: 94 % of control

## CCc1c(C)[nH]c2ccc([N+](=O)[O-])cc12
endpoint: mean survival time, dose: 50.0 mg/kg/injection, schedule: Q01DX009 (ip), vehicle: saline with Tween-80
  T/C: 103 % of control
[4]
  T/C: 94 % of control
[10]
  T/C: 100 % of control
[6]
  T/C: 97 % of control
[11]
  T/C: 93 % of control

## NC(N)=NC(N)=Nc1ccc(-c2ccccc2)cc1
endpoint: mean survival time, dose: 25.0 mg/kg/injection, schedule: Q01DX001 (ip), vehicle: saline with Tween-80
  T/C: 100 % of control
endpoint: mean survival time, dose: 50.0 mg/kg/injection, schedule: Q01DX001 (ip), vehicle: saline with Tween-80
  T/C: 103 % of control
[12]
  T/C: 93 % of control

## CC1=C2C3OC(=O)C(C)C3CCC2(C)C=CC1=O (stereo not given)
[5]
  T/C: 116 % of control
[7]
  T/C: 116 % of control

## Nc1ncc(C2OC(CO)C(O)C2O)c(=O)[nH]1 (stereo not given)
endpoint: median survival time, dose: 64.0 mg/kg/injection, schedule: Q01DX005 (ip), vehicle: saline
  T/C: 160 % of control
endpoint: median survival time, dose: 128.0 mg/kg/injection, schedule: Q01DX005 (ip), vehicle: saline
  T/C: 162 % of control and 243 % of control
endpoint: median survival time, dose: 256.0 mg/kg/injection, schedule: Q01DX005 (ip), vehicle: saline
  T/C: 94 % of control

## O=C(c1ccc(-c2ccccc2)cc1)C1(Br)CCCCC1
[4]
  T/C: 102 % of control
[10]
  T/C: 101 % of control
[6]
  T/C: 96 % of control
[11]
  T/C: 102 % of control
[8]
  T/C: 97 % of control
[13]
  T/C: 98 % of control

## C(=Nc1ccc2ccccc2c1)c1ccccc1
endpoint: mean survival time, dose: 50.0 mg/kg/injection, schedule: Q04DX002 (ip), vehicle: saline with Tween-80
  T/C: 91 % of control
[5]
  T/C: 95 % of control
[7]
  T/C: 95 % of control
[9]
  T/C: 98 % of control

## CC(Sc1ccccc1)C(=O)OC1C=CCCC1 (stereo not given)
[5]
  T/C: 98 % of control
[7]
  T/C: 106 % of control
[9]
  T/C: 98 % of control

## O=C1C(C(O)c2ccccc2)CCCC1C(O)c1ccccc1 (stereo not given)
[10]
  T/C: 89 % of control
[11]
  T/C: 89 % of control
[13]
  T/C: 92 % of control

## CC(C(=O)O)C(C(=O)O)C(=O)O (stereo not given)
endpoint: mean survival time, dose: 100.0 mg/kg/injection, schedule: Q04DX003 (ip), vehicle: saline
  T/C: 93 % of control
endpoint: mean survival time, dose: 200.0 mg/kg/injection, schedule: Q04DX003 (ip), vehicle: saline
  T/C: 96 % of control

## O=S(=O)(CCBr)CCBr
[4]
  T/C: 95 % of control
[10]
  T/C: 109 % of control
[6]
  T/C: 86 % of control
[11]
  T/C: 107 % of control
[8]
  T/C: 100 % of control
[13]
  T/C: 88 % of control

## CCN(CC)CC(O)CNc1cc(C)nc(/N=C(\N)Nc2ccc(Cl)c(Cl)c2)n1 (stereo not given)
endpoint: mean survival time, dose: 6.25 mg/kg/injection, schedule: Q01DX009 (ip), vehicle: saline with Tween-80
  T/C: 98 % of control
[14]
  T/C: 104 % of control
endpoint: mean survival time, dose: 25.0 mg/kg/injection, schedule: Q01DX009 (ip), vehicle: saline with Tween-80
  T/C: 106 % of control

## O=[N+]([O-])c1ccccc1N/N=C/c1ccccc1
[1]
  T/C: 100 % of control
[2]
  T/C: 97 % of control
[3]
  T/C: 97 % of control

## O=C(CCl)Nc1ccc(-c2c(NC(=O)CCl)ncc3ccccc23)cc1
endpoint: mean survival time, dose: 18.75 mg/kg/injection, schedule: Q04DX003 (ip), vehicle: other
  T/C: 100 % of control
endpoint: mean survival time, dose: 37.5 mg/kg/injection, schedule: Q04DX003 (ip), vehicle: other
  T/C: 108 % of control
endpoint: mean survival time, dose: 75.0 mg/kg/injection, schedule: Q04DX003 (ip), vehicle: other
  T/C: 108 % of control
endpoint: mean survival time, dose: 150.0 mg/kg/injection, schedule: Q04DX003 (ip), vehicle: other
  T/C: 108 % of control

## CN(C)C(=O)Nc1ccc(Cl)cc1
endpoint: median survival time, dose: 12.5 mg/kg/injection, schedule: Q01DX009 (ip), vehicle: saline
  T/C: 100 % of control
endpoint: median survival time, dose: 25.0 mg/kg/injection, schedule: Q01DX009 (ip), vehicle: saline
  T/C: 100 % of control
endpoint: median survival time, dose: 50.0 mg/kg/injection, schedule: Q01DX009 (ip), vehicle: saline
  T/C: 103 % of control
endpoint: median survival time, dose: 100.0 mg/kg/injection, schedule: Q01DX009 (ip), vehicle: saline
  T/C: 100 % of control
endpoint: median survival time, dose: 200.0 mg/kg/injection, schedule: Q01DX009 (ip), vehicle: saline
  T/C: 101 % of control
endpoint: median survival time, dose: 400.0 mg/kg/injection, schedule: Q01DX009 (ip), vehicle: saline
  T/C: 100 % of control

## CCCCCCCCCCCCCCCC(=O)N(CCCN(C)C)C1CCC(N(CCCN(C)C)C(=O)CCCCCCCCCCCCCCC)CC1 (stereo not given)
[14]
  T/C: 101 % of control
endpoint: mean survival time, dose: 12.5 mg/kg/injection, schedule: Q04DX003 (ip), vehicle: saline with Tween-80
  T/C: 93 % of control
endpoint: mean survival time, dose: 25.0 mg/kg/injection, schedule: Q04DX003 (ip), vehicle: saline with Tween-80
  T/C: 111 % of control
endpoint: mean survival time, dose: 50.0 mg/kg/injection, schedule: Q04DX003 (ip), vehicle: saline with Tween-80
  T/C: 102 % of control

## O=CNc1ccccc1
[4]
  T/C: 97 % of control
[6]
  T/C: 105 % of control
[8]
  T/C: 115 % of control

## CC1(C)OC2C(C3N(c4ccccc4)CCN3c3ccccc3)OC(n3ccc(=O)[nH]c3=O)C2O1 (stereo not given)
endpoint: mean survival time, dose: 12.5 mg/kg/injection, schedule: Q01DX005 (ip), vehicle: distilled water + Tween-80
  T/C: 97 % of control
endpoint: mean survival time, dose: 25.0 mg/kg/injection, schedule: Q01DX005 (ip), vehicle: distilled water + Tween-80
  T/C: 94 % of control
endpoint: mean survival time, dose: 50.0 mg/kg/injection, schedule: Q01DX005 (ip), vehicle: distilled water + Tween-80
  T/C: 94 % of control
endpoint: mean survival time, dose: 100.0 mg/kg/injection, schedule: Q01DX005 (ip), vehicle: distilled water + Tween-80
  T/C: 91 % of control
endpoint: mean survival time, dose: 200.0 mg/kg/injection, schedule: Q01DX005 (ip), vehicle: distilled water + Tween-80
  T/C: 96 % of control

## O=C(COc1ccccc1)NCc1ccccc1Cl
[10]
  T/C: 100 % of control
[11]
  T/C: 103 % of control
[13]
  T/C: 91 % of control

## O=c1[nH]nc([O-])c2c1[n+](Cc1ccccc1)cn2Cc1ccccc1
endpoint: mean survival time, dose: 9.4 mg/kg/injection, schedule: Q01DX005 (ip), vehicle: water
  T/C: 94 % of control
endpoint: mean survival time, dose: 18.8 mg/kg/injection, schedule: Q01DX005 (ip), vehicle: water
  T/C: 98 % of control
endpoint: mean survival time, dose: 37.5 mg/kg/injection, schedule: Q01DX005 (ip), vehicle: water
  T/C: 91 % of control
endpoint: mean survival time, dose: 75.0 mg/kg/injection, schedule: Q01DX005 (ip), vehicle: water
  T/C: 88 % of control

## Nc1ccc(S(=O)(=O)Nc2ccccc2C(=O)O)cc1
endpoint: mean survival time, dose: 37.5 mg/kg/injection, schedule: Q01DX001 (ip), vehicle: saline with Tween-80
  T/C: 102 % of control
endpoint: mean survival time, dose: 75.0 mg/kg/injection, schedule: Q01DX001 (ip), vehicle: saline with Tween-80
  T/C: 101 % of control
endpoint: mean survival time, dose: 150.0 mg/kg/injection, schedule: Q01DX001 (ip), vehicle: saline with Tween-80
  T/C: 95 % of control

## CC(Br)C1(c2ccccc2)OCCO1 (stereo not given)
[12]
  T/C: 100 % of control
[4]
  T/C: 114 % of control
[10]
  T/C: 104 % of control
[15]
  T/C: 94 % of control
[11]
  T/C: 111 % of control
[16]
  T/C: 102 % of control
[13]
  T/C: 101 % of control

## CCOC(=O)c1c[nH]c([O-])c1[N+]#N
[12]
  T/C: 94 % of control
[5]
  T/C: 100 % of control
[15]
  T/C: 96 % of control
[7]
  T/C: 107 % of control
[16]
  T/C: 91 % of control
[9]
  T/C: 103 % of control

## Cc1c2ccccc2c(CSCC(N)C(=O)O)c2ccccc12 (stereo not given)
[10]
  T/C: 89 % of control
[11]
  T/C: 107 % of control
[13]
  T/C: 98 % of control

## O=C(O)COC(C[N+](=O)[O-])C(Cl)(Cl)Cl (stereo not given)
[10]
  T/C: 93 % of control
[11]
  T/C: 104 % of control
[13]
  T/C: 98 % of control

## NC(=O)NC1CCCC1
[4]
  T/C: 107 % of control
[6]
  T/C: 107 % of control
[8]
  T/C: 107 % of control

## Cc1ccc(NCCNCC(C)(C)O)c2c(=O)c3ccccc3sc12
endpoint: mean survival time, dose: 12.5 mg/kg/injection, schedule: Q04DX003 (ip), vehicle: saline
  T/C: 100 % of control
endpoint: mean survival time, dose: 25.0 mg/kg/injection, schedule: Q04DX003 (ip), vehicle: saline
  T/C: 103 % of control
endpoint: mean survival time, dose: 50.0 mg/kg/injection, schedule: Q01DX001 (ip), vehicle: saline
  T/C: 93 % of control
endpoint: mean survival time, dose: 50.0 mg/kg/injection, schedule: Q04DX003 (ip), vehicle: saline
  T/C: 92 % of control
